This note sets out measurements from US9012398B2, “Acylated exendin-4 compounds” (priority 2006, dated 2015).

The assay has as its target T1, human GLP-1 receptor (Homo sapiens, UniProt P43220).
T1 construct: expressed in transfected cells; host or cells: BHK cells, clone BHK-467-12A; plasma membrane preparation
In words: Functional receptor assay: cAMP formation in plasma membranes of BHK cells expressing the cloned human GLP-1 receptor (GLP1cAMPma). It counts as biochemical. The protocol: The term “insulinotropic agent” as used herein means a compound which is an agonist of the human GLP-1 receptor, i.e. a compound which stimulates the formation of cAMP in a suitable medium containing the human GLP-1 receptor (one such medium disclosed below). The potency of an insulinotropic agent is determined by calculating the EC50 value from the dose-response curve as described below.
The cells were washed twice in phosphate buffered saline and harvested with Versene. Plasma membranes were prepared from the cells by homogenisation with an Ultraturrax in buffer 1 (20 mM HEPES-Na, 10 mM EDTA, pH 7.4). The homogenate was centrifuged at 48,000×g for 15 min at 4° C. The pellet was suspended by homogenization in buffer 2 (20 mM HEPES-Na, 0.1 mM EDTA, pH 7.4), then centrifuged at 48,000×g for 15 min at 4° C. The washing procedure was repeated one more time. The final pellet was suspended in buffer 2 and used immediately for assays or stored at −80° C.
The functional receptor assay was carried out by measuring cyclic AMP (cAMP) as a response to stimulation by the insulinotropic agent. cAMP formed was quantified by the AlphaScreen™ cAMP Kit (Perkin Elmer Life Sciences). Incubations were carried out in half-area 96-well microtiter plates in a total volume of 50 μL buffer 3 (50 mM Tris-HCl, 5 mM HEPES, 10 mM MgCl2, pH 7.4) and with the following additions: 1 mM ATP, 1 μM GTP, 0.5 mM 3-isobutyl-1-methylxanthine (IBMX), 0.01% Tween-20, 0.1% BSA, 6 μg membrane preparation, 15 μg/mL acceptor beads, 20 μg/mL donor beads preincubated with 6 nM biotinyl-cAMP. […] GTP was freshly prepared for each experiment. The plate was incubated in the dark with slow agitation for three hours at room temperature followed by counting in the Fusion™ instrument (Perkin Elmer Life Sciences). Concentration-response curves were plotted for the individual compounds and EC50 values estimated using a four-parameter logistic model with Prism v. 4.0 (GraphPad, Carlsbad, Calif.).
In general terms: Changes in cAMP serve as a functional read-out for many G protein-coupled receptors.

Where [1] appears, read: cAMP, membranes with human GLP-1 receptor, mean value, read-out: GLP1cAMPma (3693) [EC50 (nM)] Mean Value.

Like-named read-outs stand apart in the source and are kept apart here. Starred links: 1 amine or outer side, 2 acyl side, 3 side chain; linkers in the order of their positions; H or OH if unused. Residues, ends and D or L forms follow the SMILES beside them. Groups on a side chain read outwards from the residue. *: point of attachment. C18 diacid = O=C(O)CCCCCCCCCCCCCCCCC(=O)*; γGlu = O=C(O)[C@H](CCC(=O)[*:2])N[*:1]; Stearoyl = CCCCCCCCCCCCCCCCCC(=O)*; Palmitoyl = CCCCCCCCCCCCCCCC(=O)*; AEEA = NCCOCCOCC(=O)O

T1 sequence (P43220 24-463): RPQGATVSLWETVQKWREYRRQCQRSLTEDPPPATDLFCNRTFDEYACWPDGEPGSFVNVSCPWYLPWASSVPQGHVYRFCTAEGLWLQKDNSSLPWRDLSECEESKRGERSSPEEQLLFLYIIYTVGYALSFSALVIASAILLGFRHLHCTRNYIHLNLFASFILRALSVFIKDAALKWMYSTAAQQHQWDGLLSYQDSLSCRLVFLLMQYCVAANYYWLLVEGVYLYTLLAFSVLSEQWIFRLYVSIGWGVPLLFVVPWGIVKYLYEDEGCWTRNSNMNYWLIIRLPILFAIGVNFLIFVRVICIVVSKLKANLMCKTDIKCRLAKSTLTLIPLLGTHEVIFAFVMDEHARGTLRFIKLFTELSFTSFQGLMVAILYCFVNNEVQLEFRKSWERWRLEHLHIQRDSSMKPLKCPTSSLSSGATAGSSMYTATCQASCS

For orientation: EC50 means the midpoint of the concentration-response curve. With `CC[C@H](C)[C@H](NC(=O)[C@H](Cc1ccccc1)NC(=O)[C@H](CC(C)C)NC(=O)[C@H](CCCCNC(=O)COCCOCCNC(=O)COCCOCCNC(=O)CCCCCCCCCCCCCCCCC(=O)O)NC(=O)[C@@H](NC(=O)[C@H](C)NC(=O)[C@H](CCC(=O)O)NC(=O)[C@H](CCC(=O)O)NC(=O)[C@H](CCC(=O)O)NC(=O)[C@H](CC(C)C)NC(=O)[C@H](CCC(N)=O)NC(=O)[C@H](CCCNC(=N)N)NC(=O)[C@H](CO)NC(=O)[C@H](CC(C)C)NC(=O)[C@H](CC(=O)O)NC(=O)[C@H](CO)NC(=O)[C@@H](NC(=O)[C@H](Cc1ccccc1)NC(=O)[C@@H](NC(=O)CNC(=O)[C@H](CCC(=O)O)NC(=O)CNC(=O)[C@@H](N)Cc1c[nH]cn1)[C@@H](C)O)[C@@H](C)O)C(C)C)C(=O)N[C@@H](CCC(=O)O)C(=O)N[C@@H](Cc1c[nH]c2ccccc12)C(=O)N[C@@H](CC(C)C)C(=O)N[C@@H](CCCNC(=N)N)C(=O)N[C@@H](CCC(N)=O)C(=O)NCC(=O)NCC(=O)N1CCC[C@H]1C(=O)N[C@@H](CO)C(=O)N[C@@H](CO)C(=O)NCC(=O)N[C@@H](C)C(=O)N1CCC[C@H]1C(=O)N1CCC[C@H]1C(=O)N1CCC[C@H]1C(=O)N[C@@H](CO)C(N)=O` [Example 12, N-ε^20-(2-(2-(2-(2-(2-(2-(17-carboxyheptadecanoylamino)ethoxy)ethoxy)acetylamino)ethoxy)ethoxy)acetyl)[Arg12,Leu^14,Arg^27,Gln^28,Lys^20]Exendin-4 (1-39)amide] (H-HGEGTFTSDLSRQLEEEAVK([AEEA-AEEA-C18 diacid])LFIEWLRQGGPSSGAPPPS-NH2; N-terminus assumed), the EC50 under setting [1] turned out to be 5.45 nM.

`CCCCCCCCCCCCCCCCCC(=O)N[C@@H](CCC(=O)NCCOCCOCC(=O)NCCOCCOCC(=O)NCCCC[C@H](NC(=O)[C@@H](NC(=O)[C@H](C)NC(=O)[C@H](CCC(=O)O)NC(=O)[C@H](CCC(=O)O)NC(=O)[C@H](CCC(=O)O)NC(=O)[C@H](CC(C)C)NC(=O)[C@H](CCC(N)=O)NC(=O)[C@H](CCCNC(=N)N)NC(=O)[C@H](CO)NC(=O)[C@H](CC(C)C)NC(=O)[C@H](CC(=O)O)NC(=O)[C@H](CO)NC(=O)[C@@H](NC(=O)[C@H](Cc1ccccc1)NC(=O)[C@@H](NC(=O)CNC(=O)[C@H](CCC(=O)O)NC(=O)CNC(=O)[C@@H](N)Cc1c[nH]cn1)[C@@H](C)O)[C@@H](C)O)C(C)C)C(=O)N[C@@H](CC(C)C)C(=O)N[C@@H](Cc1ccccc1)C(=O)N[C@H](C(=O)N[C@@H](CCC(=O)O)C(=O)N[C@@H](Cc1c[nH]c2ccccc12)C(=O)N[C@@H](CC(C)C)C(=O)N[C@@H](CCCNC(=N)N)C(=O)N[C@@H](CCC(N)=O)C(=O)NCC(=O)NCC(=O)N1CCC[C@H]1C(=O)N[C@@H](CO)C(=O)N[C@@H](CO)C(=O)NCC(=O)N[C@@H](C)C(=O)N1CCC[C@H]1C(=O)N1CCC[C@H]1C(=O)N1CCC[C@H]1C(=O)N[C@@H](CO)C(N)=O)[C@@H](C)CC)C(=O)O` [Example 15] (H-HGEGTFTSDLSRQLEEEAVK([AEEA-AEEA-γGlu-Stearoyl])LFIEWLRQGGPSSGAPPPS-NH2): the EC50 under setting [1] is 0.044 nM.

With `CCCCCCCCCCCCCCCCCC(=O)N[C@@H](CCC(=O)NCCOCCOCC(=O)NCCOCCOCC(=O)NCCCC[C@H](NC(=O)[C@@H]1CCCN1C(=O)CNC(=O)CNC(=O)[C@H](CCCNC(=N)N)NC(=O)[C@@H](NC(=O)[C@H](CC(C)C)NC(=O)[C@H](Cc1c[nH]c2ccccc12)NC(=O)[C@H](CCC(=O)O)NC(=O)[C@@H](NC(=O)[C@H](Cc1ccccc1)NC(=O)[C@H](CC(C)C)NC(=O)[C@H](CCCNC(=N)N)NC(=O)[C@@H](NC(=O)[C@H](C)NC(=O)[C@H](CCC(=O)O)NC(=O)[C@H](CCC(=O)O)NC(=O)[C@H](CCC(=O)O)NC(=O)[C@H](CC(C)C)NC(=O)[C@H](CCC(N)=O)NC(=O)[C@H](CCCNC(=N)N)NC(=O)[C@H](CO)NC(=O)[C@H](CC(C)C)NC(=O)[C@H](CC(=O)O)NC(=O)[C@H](CO)NC(=O)[C@@H](NC(=O)[C@H](Cc1ccccc1)NC(=O)[C@@H](NC(=O)CNC(=O)[C@H](CCC(=O)O)NC(=O)CNC(=O)[C@@H](N)Cc1c[nH]cn1)[C@@H](C)O)[C@@H](C)O)C(C)C)[C@@H](C)CC)C(C)C)C(=O)N[C@@H](CO)C(=O)NCC(=O)N[C@@H](C)C(=O)N1CCC[C@H]1C(=O)N1CCC[C@H]1C(=O)N1CCC[C@H]1C(=O)N[C@@H](CO)C(N)=O)C(=O)O` [Example 17, N-ε^32-(2-(2-(2-(2-(2-(2-(4-(Octadecanoylamino)-4(S)-carboxybutyrylamino))ethoxy)ethoxy)acetylamino)ethoxy)ethoxy)acetyl[Arg^12,Leu^14,Val^27,Arg^28,Lys^32]Exendin-4-(1-39)amide] (H-HGEGTFTSDLSRQLEEEAVRLFIEWLVRGGPK([AEEA-AEEA-γGlu-Stearoyl])SGAPPPS-NH2; N-terminus assumed), the EC50 is 0.025 nM.

As to `CCCCCCCCCCCCCCCC(=O)N[C@@H](CCC(=O)NCCOCCOCC(=O)NCCOCCOCC(=O)NCCCC[C@H](NC(=O)[C@@H](NC(=O)[C@H](C)NC(=O)[C@H](CCC(=O)O)NC(=O)[C@H](CCC(=O)O)NC(=O)[C@H](CCC(=O)O)NC(=O)[C@H](CC(C)C)NC(=O)[C@H](CCC(N)=O)NC(=O)[C@H](CCCNC(=N)N)NC(=O)[C@H](CO)NC(=O)[C@H](CC(C)C)NC(=O)[C@H](CC(=O)O)NC(=O)[C@H](CO)NC(=O)[C@@H](NC(=O)[C@H](Cc1ccccc1)NC(=O)[C@@H](NC(=O)CNC(=O)[C@H](CCC(=O)O)NC(=O)CNC(=O)[C@@H](N)Cc1c[nH]cn1)[C@@H](C)O)[C@@H](C)O)C(C)C)C(=O)N[C@@H](CC(C)C)C(=O)N[C@@H](Cc1ccccc1)C(=O)N[C@H](C(=O)N[C@@H](CCC(=O)O)C(=O)N[C@@H](Cc1c[nH]c2ccccc12)C(=O)N[C@@H](CC(C)C)C(=O)N[C@@H](CCCNC(=N)N)C(=O)N[C@@H](CCC(N)=O)C(=O)NCC(=O)NCC(=O)N1CCC[C@H]1C(=O)N[C@@H](CO)C(=O)N[C@@H](CO)C(=O)NCC(=O)N[C@@H](C)C(=O)N1CCC[C@H]1C(=O)N1CCC[C@H]1C(=O)N1CCC[C@H]1C(=O)N[C@@H](CO)C(N)=O)[C@@H](C)CC)C(=O)O` [Example 18, N-ε^20-2-(2-(2-(2-(2-(2-(4-(Hexadecanoylamino)-4(S)-carboxybutyrylamino)ethoxy)ethoxy)acetylamino)ethoxy)ethoxy)acetyl[Arg^12,27,Leu^14,Lys^20,Gln^28]Exendin-4-(1-39)-peptide amide] (H-HGEGTFTSDLSRQLEEEAVK([AEEA-AEEA-γGlu-Palmitoyl])LFIEWLRQGGPSSGAPPPS-NH2; N-terminus assumed), the EC50 under setting [1] was 0.033 nM.

For the compound `CC[C@H](C)[C@H](NC(=O)[C@H](Cc1ccccc1)NC(=O)[C@H](CC(C)C)NC(=O)[C@H](CCCNC(=N)N)NC(=O)[C@@H](NC(=O)[C@H](C)NC(=O)[C@H](CCC(=O)O)NC(=O)[C@H](CCC(=O)O)NC(=O)[C@H](CCC(=O)O)NC(=O)[C@H](CCCCNC(=O)COCCOCCNC(=O)COCCOCCNC(=O)CCCCCCCCCCCCCCCCC(=O)O)NC(=O)[C@H](CCC(N)=O)NC(=O)[C@H](CCCNC(=N)N)NC(=O)[C@H](CO)NC(=O)[C@H](CC(C)C)NC(=O)[C@H](CC(=O)O)NC(=O)[C@H](CO)NC(=O)[C@@H](NC(=O)[C@H](Cc1ccccc1)NC(=O)[C@@H](NC(=O)CNC(=O)[C@H](CCC(=O)O)NC(=O)CNC(=O)[C@@H](N)Cc1c[nH]cn1)[C@@H](C)O)[C@@H](C)O)C(C)C)C(=O)N[C@@H](CCC(=O)O)C(=O)N[C@@H](Cc1c[nH]c2ccccc12)C(=O)N[C@@H](CC(C)C)C(=O)N[C@H](C(=O)N[C@@H](CCCNC(=N)N)C(=O)NCC(=O)NCC(=O)N1CCC[C@H]1C(=O)N[C@@H](CO)C(=O)N[C@@H](CO)C(=O)NCC(=O)N[C@@H](C)C(=O)N1CCC[C@H]1C(=O)N1CCC[C@H]1C(=O)N1CCC[C@H]1C(=O)N[C@@H](CO)C(N)=O)C(C)C` [Example 27] (H-HGEGTFTSDLSRQK([AEEA-AEEA-C18 diacid])EEEAVRLFIEWLVRGGPSSGAPPPS-NH2; N-terminus assumed), the EC50 under setting [1] came out at 3.65 nM.
